Laboratory results taken from US20240350497A1, “COMBINATION THERAPY FOR THE TREATMENT OF PAN-KRAS MUTATED CANCERS” (Tiziana Life Sciences PLC, priority 2021, published 2024).
Where two headings read alike, the source gives them in different places.

What was measured:
[1] = test system: cell lines harboring KRAS mutations; assay: sensitivity of KRAS mutant cell lines to CDK inhibitor in vitro; assay type: cell-based
From the text: (§1) FIG. 7A and FIG. 7B are plots showing dose-response curves of colorectal non-isogenic cells containing either wild type (WT) or mutated KRAS in response to CDK inhibitors AT7519 (FIG. 7A) or dinaciclib (FIG. 7B). The cyclin-dependent kinase, CDK1, is a synthetic lethal target for KRAS mutant tumors. KRAS mutant cells show increased activity of CDK1 (FIGS. 6A-6D). The inhibition of CDK1 causes a reduction in the S-phase of the cell cycle progression decreasing cell proliferation in KRAS mutant cells. This decreased cell cycle activity is observed by the modulation of Rb, a master control of the G1/S checkpoint. Through a series of experiments, including using parallel siRNA screens in KRAS mutant and wild type colorectal isogenic tumor cells and subsequently validated in a genetically diverse panel of 26 colorectal and pancreatic tumor cell models, the KRAS/CDK1 interaction has a synthetic lethal effect on cancer cells.

[2] = test system: KRAS mutant tumor xenografts; assay: KRAS mutant tumor xenografts treated with CDK inhibitor in vivo; parameters: species or system mice
From the text: FIG. 8A is a plot showing the change in tumor volume of KRAS mutant tumor xenografts in mice treated with vehicle control (DMSO) or the CDK inhibitor AZD5438.
FIG. 8B is a plot showing the percent survival of mice harboring KRAS mutant tumor xenografts following treatment with either vehicle control (DMSO) or the CDK inhibitor AZD5438. FIG. 8C is a chart showing the tumor weight in mice harboring KRAS mutant tumor xenografts following treatment with either vehicle control (DMSO) or the CDK inhibitor AZD5438. FIG. 8D is a series of images showing tumor shrinkage in mice harboring KRAS mutant tumor xenografts following treatment with the CDK inhibitor AZD5438.
as §1, with “The” for “FIG. 7A and FIG. 7B are plots showing dose-response curves of colorectal non-isogenic cells containing either wild type (WT) or mutated KRAS in response to CDK inhibitors AT7519 (FIG. 7A) or dinaciclib (FIG. 7B). The”

[3] = test system: HCT-116 human colon carcinoma; assay: milciclib in combination with 5-FU, HCT-116 human colon carcinoma xenograft; conditions: for animal deaths: single agents at the tested doses
Procedure: (§2) The efficacy of milciclib was tested in several human xenografts implanted in the hind flank region of athymic mice (FIG. 18). Models in nude mice included A2780 ovarian cancer, DU-145 prostatic cancer, BX-PC3 pancreatic cancer, A549 non-small cell lung cancer, MDA-MB-231 breast cancer, MIA-PACA-2 pancreatic cancer, A375 melanoma, CAPAN-1 pancreatic cancer, and HCT-116 colon cancer. The MIA-PACA-2 and CAPAN-1 pancreatic cancer cell lines both express KRAS mutants. The MIA-PACA-2 and CAPAN-1 cell lines tested with milciclib harbor the KRAS mutants, G12C and G12V, respectively. […] The HCT-116 colon cancer cell line expresses the G13D KRAS mutant, making up of 15.5% of CRC KRAS mutants Following implantation, tumors were allowed to establish to a size of 100 mm3 prior to oral administration of milciclib. In all these experiments, a daily bid treatment was administered for a maximum of 10 days.
Activity of milciclib has been tested in combination with 5-FU on HCT-116 human colon carcinoma cells (FIG. 10A). The HCT-116 cell line expresses the KRAS G13D mutant.

NSCLC = conditions: single agent, Phase II studies; cited from earlier work
[4] = test system: BX-PC3 human pancreatic carcinoma; assay: milciclib in combination with gemcitabine, BX-PC3 human pancreatic carcinoma, first experiment; conditions: for animal deaths: single agents at the tested doses
Procedure: A combination therapy of milciclib and the DNA damaging agent, gemcitabine, was treated on BX-PC3 human pancreatic carcinoma (FIG. 12A).

[5] = test system: BX-PC3 human pancreatic carcinoma; assay: milciclib in combination with gemcitabine, BX-PC3 human pancreatic carcinoma, second experiment; conditions: for animal deaths: single agents at the tested doses
Procedure: A second experiment was conducted of milciclib in combination with gemcitabine on BX-PC3 human pancreatic carcinoma (FIG. 12B and FIG. 12C).

[6] = test system: HCT-116 human colon carcinoma; assay: milciclib in combination with irinotecan, HCT-116 human colon carcinoma xenograft model; conditions: for animal deaths: single agents at the tested doses
Procedure: as §2
Topoisomerase enzymes control the manipulation of the structure of DNA necessary for replication.

[7] = test system: advanced solid malignancies; conditions: oral, phase I; cited from earlier work
MDA-MB-231 cells = MDA-MB-231 cells exposed to milciclib and DNA damaging agent, alone or in combination; assay type: cell-based, human; conditions: TNBC cells
Procedure: The use of milciclib in combination with five chemotherapeutic drugs already in use was tested for the treatment of TNBC including paclitaxel, doxorubicin, 5-FU, cisplatin, and cyclophosphamide. Potential synergistic effects with milciclib by exposing MDA-MB-231 cells to serial dilutions of milciclib and each DNA damaging agent, alone or in combination, in clinically relevant concentrations (FIG. 16A). […] Tumor proliferation was reduced by nearly 5 times for the combination treatment of milciclib and cisplatin compared to the vehicle treated group, assessed by Ki67 staining.

[8] = test system: MIA-PACA-2 pancreatic cancer (KRAS G12C); assay: human xenograft efficacy, MIA-PACA-2; assay type: in vivo, athymic mice; conditions: oral, daily bid treatment for a maximum of 10 days
[9] = test system: N-592 human small cell carcinoma; conditions: for animal deaths: single agents at the tested doses
Procedure: Milciclib was tested orally at the doses of 20 and 30 mg/kg twice a day for 17 consecutive days.

[10] = test system: MDA-MB-231 human breast cancer
Procedure: FIG. 15A is a series of plots showing change in tumor volume in mice bearing MDA-MB-231 human breast cancer tumor xenografts following treatment with 40 mg/kg milciclib (PHA-848125) (n=8) or vehicle control (5% glucose solution) (n=8) via oral gavage twice daily on a 5-days-on/2-days-off schedule for four weeks. FIG. 15B is a series of images and a chart showing immunohistochemistry staining of Ki67 and mitotic nucleus counts, and corresponding quantification in tumor tissue collected 48 hours after the last treatment with milciclib (PHA-848125) or vehicle control for 3 weeks.

[11] = test system: KRAS G12D LA2 pulmonary cancerous lesions; assay: transgenic mouse model KRAS G12D LA2, MRI; conditions: in vivo
Procedure: Milciclib was tested in a transgenic mouse model KRAS G12D LA2 that develops pulmonary cancerous lesions reminiscent of human lung adenocarcinomas. Milciclib was tested to follow longitudinal disease progression and evaluate therapeutic efficacy by using magnetic resonance imaging (MRI) and positron emission tomography (PET). […] The MRI methodology used in this study allow longitudinal monitoring of tumor development and response in a single animal, and furthermore, allows for more clinically relevant study design and increases its statistical relevance.

[12] = test system: CAPAN-1 pancreatic cancer (KRAS G12V); assay: human xenograft efficacy, CAPAN-1; assay type: in vivo, athymic mice; conditions: oral, daily bid treatment for a maximum of 10 days
[13] = test system: A2780 human ovarian carcinoma; assay: A2780 human ovarian carcinoma xenografts, oral milciclib; assay type: in vivo, mice
Procedure: Pathogenic KRAS mutations were present in 606 patients of 7,325 epithelial ovarian cancers from the Caris Database, about 8.3% of the total. The frequency of KRAS mutation by subtype occurred in the following: 36.4% G12D, 35.8% G12V, and 8.4% G12C. A dose-dependent inhibition of tumor growth was measured in mice harboring A2780 human ovarian carcinoma xenografts administered with daily oral administration of milciclib.

[14] = milciclib 20 mg/kg orally twice a day for 9 consecutive days
[15] = milciclib 40 mg/kg orally twice a day for 9 consecutive days

O=C(NC1CCNCC1)c1[nH]ncc1NC(=O)c1c(Cl)cccc1Cl [AT519]
sensitivity of KRAS mutant versus wild type cells [1]: increased sensitivity

Cc1ncc(-c2ccnc(Nc3ccc(S(C)(=O)=O)cc3)n2)n1C(C)C [AZD5438]
sensitivity of KRAS mutant tumors [2]: increased sensitivity

O=c1[nH]cc(F)c(=O)[nH]1 [Compound 5-FU, 5-fluorouracil, reference compound]
TGI ([3]; 5-FU 50 mg/kg IV q7dx2): 33% | animal deaths [3]: No animal died

Nc1ccn([C@@H]2O[C@H](CO)[C@@H](O)C2(F)F)c(=O)n1 [gemcitabine, reference compound]
median survival (NSCLC): 9 months | objective response rate (NSCLC): 20-25% | TGI ([4]; gemcitabine 80 mg/kg IV): 61% | animal deaths [4]: No animal died | TGI ([5]; gemcitabine 80 mg/kg IV q4dx3): 70% | TGI ([5]; gemcitabine 80 mg/kg IV q7dx3): 62% | animal deaths [5]: No animal died

CCc1c2c(nc3ccc(OC(=O)N4CCC(N5CCCCC5)CC4)cc13)-c1cc3c(c(=O)n1C2)COC(=O)[C@]3(O)CC [irinotecan, reference compound]
TGI ([6]; irinotecan 45 mg/kg IV q4dx3): 84% | animal deaths [6]: No animal died

CNC(=O)c1nn(C)c2c1C(C)(C)Cc1cnc(Nc3ccc(N4CCN(C)CC4)cc3)nc1-2 [milciclib, N,1,4,4-tetramethyl-8-((4-(4-methylpiperazin-1-yl)phenyl)amino)-4,5-dihydro-1H-pyrazolo[4,3-h]quinazoline-3-carboxamide]
RP2D [7]: 150 mg/day | tolerability [7]: well-tolerated | interaction with cisplatin, cisplatin-induced apoptosis (MDA-MB-231 cells): acts synergistically | maximal inhibition [8]: 70% | TGI [4, 14]: 61% | TGI [4, 15]: 79% | animal deaths [4]: No animal died | TGI [5, 14]: 74% | TGI ([5]; milciclib 20 mg/kg twice a day for 15 days): 80% | TGI [5, 15]: 88% | animal deaths [5]: No animal died | TGI ([6]; milciclib 20 mg/Kg orally twice a day for 9 days): 38% | TGI ([6]; milciclib 30 mg/Kg orally twice a day for 9 days): 60% | animal deaths [6]: No animal died | TGI ([3]; milciclib 20 mg/kg orally twice a day for 12 days): 42% | TGI ([3]; milciclib 30 mg/kg orally twice a day for 12 days): 64% | animal deaths [3]: No animal died | TGI ([9]; milciclib 20 mg/kg orally twice a day for 17 consecutive days): 34% | TGI ([9]; milciclib 30 mg/kg orally twice a day for 17 consecutive days): 56% | animal deaths [9]: No animal died | tumor growth ([10]; 40 mg/kg oral gavage twice daily, 5-days-on/2-days-off): arrests tumor growth | tolerability ([10]; mouse, in vivo): well tolerated | tumor growth inhibition at the end of treatment, measured by MRI [11]: significant tumor growth inhibition | maximal inhibition [12]: 65% | tumor growth inhibition (TGI) ([13]; 20 mg/kg bid): 53% | tumor growth inhibition (TGI) ([13]; 30 mg/kg bid): 76% | tumor growth inhibition (TGI) ([13]; 40 mg/kg bid): 91%

CC[C@@]1(O)C(=O)OCc2c1cc1n(c2=O)Cc2cc3c(CN(C)C)c(O)ccc3nc2-1 [topotecan, reference compound]
animal deaths [9]: No animal died | TGI ([9]; topotecan 6 mg/kg IV q4dx5): 71%
